# Measured values published in paper PMC8163145 (Chemical Science, 2020).
# How the values were obtained:
# LHPP [1] = conditions: pH 8.2, in the presence of 1 mM MgCl2; LHPP isolated from bovine liver; cited from earlier work
# LHPP [2] = target: T1, LHPP (Homo sapiens, UniProt Q9H008); type: biochemical
# T1 sequence (Q9H008 1-270): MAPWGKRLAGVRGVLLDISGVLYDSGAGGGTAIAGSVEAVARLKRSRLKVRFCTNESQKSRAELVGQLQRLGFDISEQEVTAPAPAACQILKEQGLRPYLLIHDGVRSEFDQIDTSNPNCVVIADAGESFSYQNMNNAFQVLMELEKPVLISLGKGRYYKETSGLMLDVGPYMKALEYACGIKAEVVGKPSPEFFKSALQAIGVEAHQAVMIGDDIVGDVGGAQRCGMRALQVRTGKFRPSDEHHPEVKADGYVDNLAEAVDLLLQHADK
# [3] = 60 °C, neutral pH; cited from earlier work
SMILES,released phosphate (LHPP activity) (LHPP [1]) [µmol/min/mg],"enzymatically hydrolyzed substrate (LHPP [2]; 100 μM 1a, 0.25 μg LHPP, 200 μL, after 60 minutes, background subtracted)","hydrolysis rate by LHPP (LHPP [2]; 100 μM substrate, 200 μL 50 mM Tris–HCl, 1 mM MgCl2, pH 7.8, 0.25 μg LHPP (0.037 μM)) [µmol/min/mg]",half-life time [3]
"O=P(O)(O)NP(=O)(O)O [PNP, imidodiphosphate]",0.44,,,
"O=P(O)(O)OP(=O)(O)O [PPi, pyrophosphate]",0.11,,,
"N[C@@H](CCCCNP(=O)(O)O)C(=O)O [Substrate 1a, N6-phosphono-L-lysine]",,roughly 50%,0.88,less than 1 h
